Experimental data taken from ChEMBL document CHEMBL4425162, “Discovery of potent wall teichoic acid early stage inhibitors” (Bioorg Med Chem Lett, 2016).
Active and inactive are the calls of the source. The calls are words filed in the database; no cut-off is given here.

Columns and labels:
[1] = Binding affinity to Methicillin-resistant Staphylococcus aureus COL TarG assessed as suppression of targocil-mediated bacterial growth inhibition after 20 hrs in presence of L-638; parameters: species or system Staphylococcus aureus subsp. aureus COL
[2] = test system: Staphylococcus aureus subsp. aureus COL; assay: Inhibition of Staphylococcus aureus COL TarO assessed as concentration of compound for potentiation of action of imipenem-mediated bacterial growth inhibition
[3] = Inhibition of Methicillin-resistant Staphylococcus aureus COL TarO assessed as suppression of bacteriophageK-mediated cell lysis; parameters: species or system Staphylococcus aureus subsp. aureus COL
[4] = test system: Staphylococcus epidermidis; assay: Inhibition of Methicillin-resistant Staphylococcus epidermidis TarO assessed as percentage of MRSE MITC<=25 uM for 25 isolates; parameters: scale not given: the % may be the effect or the level left
Staphylococcus aureus = assay: Inhibition of Methicillin-resistant Staphylococcus aureus TarO assessed as percentage of MRSA MITC<=25 uM for 25 isolates; parameters: scale not given: the % may be the effect or the level left
[5] = Inhibition of TarA (unknown origin) at 200 uM
[6] = Inhibition of Staphylococcus aureus TarO; parameters: species or system Staphylococcus aureus subsp. aureus COL
[7] = Inhibition of mnaA (unknown origin) at 200 uM

| SMILES | EC50 [1] [µM] | MITC95 [2] [µM] | EC50 [3] [µM] | Activity [4] [%] | Activity (Staphylococcus aureus) [%] | inhibition [5] | IC50 [6] [nM] | inhibition [7] |
| --- | --- | --- | --- | --- | --- | --- | --- | --- |
| CCCN(C(=O)CCn1c(C2CCCCC2)nc2ccccc21)C1CCCCC1 | 7.8 | 6.2 | 200 |  |  |  |  |  |
| CCN(C(=O)CCn1c2cccc(C)c2nc1[C@H]1CC[C@H](CC)CC1)C1CCCCC1 | 0.8 | 0.1 | 0.9 | 92 | 68 |  |  |  |
| CC(=O)N1CCC(c2nc3ccccc3n2CCC(=O)N[C@H]2CC3CC[C@@]2(C)C3(C)C)CC1 | > 200 | > 200 | > 200 |  |  |  |  |  |
| CC(C)(C)OC(=O)N1CCC(c2nc3ccccc3n2CCC(=O)N[C@H]2CC3CC[C@@]2(C)C3(C)C)CC1 | 58.7 | 9.4 | 162 |  |  |  |  |  |
| CCN(C(=O)CCn1c2cccc(Br)c2nc1[C@H]1CC[C@H](CC)CC1)C1CCCCC1 | 1.3 | 0.3 | 3.4 | 83 | 68 |  |  |  |
| CCN(C(=O)CCn1c(N2CCC(C(C)(C)C)CC2)nc2ccccc21)C1CCCCC1 | 0.13 | 0.016 | 0.25 | 29 | 76 |  |  |  |
| CC1(C)[C@@H]2CC[C@@]1(C)[C@H](NC(=O)CCn1c(C3CCCCC3)nc3ccccc31)C2 | 2.4 | 1.6 | 7.9 |  |  | inactive | 400 | inactive |
| CCC1CCC(c2nc3ccccc3n2CCC(=O)N(CC)C2CCCCC2)CC1 (stereo not given) | 0.24 | 0.03 | 0.22 |  |  |  |  |  |
| CCN(C(=O)CCn1c(C2CCCCC2)nc2ccccc21)C1CCCCCC1 | 200 | 4.7 | 200 |  |  |  |  |  |
| CN(C(=O)CCn1c(C2CCCCC2)nc2ccccc21)C1CCCCC1 | 11.4 | 4.7 | 25 |  |  |  |  |  |
| O=C(CCn1c(C2CCCCC2)nc2ccccc21)NC1CCCCC1 | 138 | 25 | 200 |  |  |  |  |  |
| CCC1CCN(c2nc3ccccc3n2CCC(=O)N(CC)C2CCCCC2)CC1 | 0.22 | 0.1 | 0.39 |  |  |  |  |  |
| CCN(C(=O)CCn1c(C2CCC(C(C)(C)C)CC2)nc2ccccc21)C1CCCCC1 (stereo not given) | 0.05 | 0.015 | 0.25 |  |  |  |  |  |
| CC1(C)C2CC[C@]1(C)[C@@H](NC(=O)CCn1c(C3CCN(S(C)(=O)=O)CC3)nc3ccccc31)C2 | > 200 | > 200 | > 200 |  |  |  |  |  |
| CC1(C)C2CC[C@]1(C)[C@@H](NC(=O)CCn1c(C3CCNCC3)nc3ccccc31)C2 | > 200 | > 200 | > 200 |  |  |  |  |  |
| CCN(C(=O)CCn1c(C2CCCCC2)nc2ccccc21)C1CCCC1 | 29.7 | 12.5 | 200 |  |  |  |  |  |
| CCN(C(=O)CCn1c2cc(Br)ccc2nc1[C@H]1CC[C@H](CC)CC1)C1CCCCC1 | 0.33 | 0.031 | 0.24 | 42 | 68 |  |  |  |
| CCN(C(=O)CCn1c(N2CCC(C)CC2)nc2ccccc21)C1CCCCC1 | 0.91 | 1.3 | 3.8 |  |  |  |  |  |
| CCN(C(=O)CCn1c(C2CCCCC2)nc2ccccc21)c1ccccc1 | 200 | 50 | 200 |  |  |  |  |  |
| CCN(C(=O)CCn1c(N2CCCCC2)nc2ccccc21)C1CCCCC1 | 7 | 4.7 | > 200 |  |  |  |  |  |
| CC1(C)[C@@H]2CC[C@@]1(C)[C@@H](NC(=O)CCn1c(C3CCCCC3)nc3ccccc31)C2 | 57.7 | 16.7 | 178 |  |  |  |  |  |
| CCN(C(=O)CCn1c(C2CCCCC2)nc2ccccc21)C1CCCCC1 | 6.2 | 1.9 | 10.1 |  |  |  |  |  |
| CCN1CCC(c2nc3ccccc3n2CCC(=O)N[C@H]2CC3CC[C@@]2(C)C3(C)C)CC1 | > 200 | > 200 | > 200 |  |  |  |  |  |
| CCN(C(=O)CCn1c2ccc(Br)cc2nc1[C@H]1CC[C@H](CC)CC1)C1CCCCC1 | 0.015 | 0.004 | 0.027 | 46 | 80 |  |  |  |
